Earlier results in PMC6510909 (Investigational New Drugs, 2018).
Like-named read-outs stand apart in the source and are kept apart here.

Assays:
[1] = tested on: patients with metastatic pancreatic cancer that was refractory to gemcitabine; parameters: method as in PMID 26351344; conditions: with capecitabine, cited from earlier work
[2] = tested on: patients with advanced/metastatic pancreatic cancer; parameters: method as in earlier work; conditions: JANUS-1 interim analysis; P = 0.409; cited from earlier work
[3] = tested on: patients with advanced/metastatic pancreatic cancer; parameters: method as in earlier work; conditions: JANUS-2 interim analysis; P = 0.942; cited from earlier work
[4] = tested on: pancreatic cancer; conditions: nab-P + G group, MPACT trial; cited from earlier work

Compound	HR for OS, ruxolitinib vs placebo ([1]; overall study population, P = 0.25)	HR for OS, ruxolitinib vs placebo ([1]; subgroup with C-reactive peptide >13 mg/L, P = 0.011)	HR for OS, ruxolitinib vs placebo [2]	HR for OS, ruxolitinib vs placebo [3]	Median OS [4] [months]
N#CC[C@H](C1CCCC1)n1cc(-c2ncnc3[nH]ccc23)cn1 [ruxolitinib]	0.79 [95% CI, 0.53–1.18]	0.47 [95% CI, 0.26–0.85]	0.969 [95% CI, 0.75–1.26]	1.584 [95% CI, 0.89–2.83]	–
albumin-bound paclitaxel + gemcitabine [nab-P + G]	–	–	–	–	8.5
